Patent US20160303138A1, “Combination Therapy Of Substituted Oxazolidinones” (Bayer Intellectual Property GMBH, priority 2006, published 2016)

Test system: arteriovenous shunt model in rats
Test: Antithrombotic effect in an arteriovenous shunt model in rats
Type: in vivo
Procedure: a) Determination of the Antithrombotic Effect in an Arteriovenous Shunt Model in Rats Fasting male rats (strain: HSD CPB:WU) were anesthetized by intraperitoneal administration of a Rompun/Ketavet solution (12 mg/kg/50 mg/kg). Thrombi were generated in an arteriovenous shunt in which a thrombogenic thread was secured, based on the method described by P C Wong et al. (Wong […], Nguan O, Watson […]. […] For this purpose, the left jugular vein and the right carotid artery were exposed. An 8 cm-long polyethylene catheter (PE60, Becton-Dickinson), followed by a 6 cm-long Tygon tube (R-3606, ID 3.2 mm, Kronlab), which contained a roughened, thrombogenic nylon thread (60×0.26 mm, […]) made into a double loop, was secured in the artery. A 2 cm-long polyethylene catheter (PE60, Becton-Dickinson) was secured in the jugular vein and connected via a 6 cm-long polyethylene catheter (PE160, Becton-Dickinson) to the Tygon tube. The tubes were filled with physiological saline solution before the shunt was opened. The extracorporeal circulation was maintained for 15 minutes. The shunt was then removed, and the nylon thread with the thrombus was immediately weighed. The empty weight of nylon thread has been determined before the start of the test. The FXa inhibitor (such as rivaroxaban) was administered to the animals intravenously, and acetylsalicylic acid (ASA) and/or ADP receptor antagonist (such as clopidogrel) was administered orally by gavage before setting up the extracorporeal circulation.

[1] = doses [mg/kg]: Example 44 0.01 iv, Clopi + ASA 1 po + 3 po, triple 0.01 iv + 1 po + 3 po
[2] = doses [mg/kg]: Example 44 0.03 iv, Clopi + ASA 1 po + 3 po, triple 0.03 iv + 1 po + 3 po

O=C(NC[C@H]1CN(c2ccc(N3CCOCC3=O)cc2)C(=O)O1)c1ccc(Cl)s1 [Example 44, 5-Chloro-N-({(5S)-2-oxo-3-[4-(3-oxo-4-morpholinyl)phenyl]-1,3-oxazolidin-5-yl}methyl)-2-thiophencarboxamide]
Antithrombotic effect (assessment in words) [1]: No effect
Thrombus reduction [%] [1]: 18%
Antithrombotic effect (assessment in words) [2]: No effect
Thrombus weight reduction [%] [2]: 20%
Antithrombotic effect, summary of Table 1 in words (doses of Table 1): ineffective
